Entries after “also recorded” stand apart in the source; their conditions may differ.

The test system of assay [1] is LPS-induced peritoneal NET formation. The experiment in a line: Mouse model of LPS-induced peritonitis (in vivo NET formation). The settings on record: C57BL/6 mice, i.p. LPS. How it is done: C57/BL6 or Swiss-Webster mice were pretreated in blinded fashion with CRISPP (10 mg/kg), nNIF (10 mg/kg), or CRISPP-SCR (10 mg/kg) by i.p. injection 1 hour prior to infection (E. coli, 4.5×10^7 cfu/mouse, i.p.) or inoculation (LPS, 25 mg/kg, i.p.) (SIGMA-ALDRICH®). Control mice were injected with saline alone. The mice were sacrificed in a CO2 chamber 3 hours post-infection/inoculation, and the peritoneal fluid and membrane samples were harvested. Briefly, the abdomen was disinfected and opened in the midline without injuring the muscle. The peritoneal cavity was lavaged with sterile saline solution (1 mL) and analyzed for in vivo NET formation, bacteriology, and leukocyte accumulation. NETs in the peritoneal fluid were qualitatively and quantitatively analyzed using live cell imaging with confocal microscopy and NET-associated histone H3 release assays. NETs on the serosal surface of the peritoneal membrane were assessed quantitatively using live cell imaging, followed by standardized grid analysis of five randomly selected high-power visual fields per tissue sample (IMAGEJ™ software, NIH). Peritoneal bacterial colony forming unit (cfu) counts were quantified by permeabilizing all recovered leukocytes with 0.1% Triton X-100 for 10 minutes and performing serial dilutions and bacterial cultures on 5% sheep blood agar plates (HARDY DIAGNOSTICS™). After a 24-hour incubation, bacterial counts were determined. Total leukocyte counts in the peritoneal lavage were determined in Neubauer chambers using an optical microscope after dilution in Turk's solution (2% acetic acid). Differential leukocyte analysis was performed using a 60× oil immersion objective to assess morphology of cyto-centrifuged cells stained with May-Gruenwald-Giemsa dye. All mice were included in the final analysis.

For assay [2], the system named is neutrophil extracellular trap (NET) formation. The experiment in a line: In vitro NET formation by stimulated human PMNs (live cell imaging, NET-associated histone H3 release). The settings on record: for PMA-stimulated NET deployment: PMA 20 nM, 1 hour preincubation; for PMA-stimulated NET deployment / NET formation triggered by heme: peptides 1 nM; for NET formation triggered by LPS: adult PMNs preincubated with agent, LPS 100 ng/mL, 1 hour; for NET formation triggered by heme: heme 1 μM; for relative inhibition of NETosis (order of potency): initial comparison of NRPs. Type of assay: cell-based. How it is done:
Qualitative assessment of NET formation was performed as previously reported (see Yost C C, et al., Blood. 2009; 113 (25):6419-27 and McInturff A M, et al., Blood. 2012; 120 (15):3118-25). Briefly, primary PMNs isolated from preterm infants, healthy term infants, and healthy adults (2×10^6 cells/mL) were incubated with control buffer or stimulated with indicated agonists or bacteria for 1 hour at 37° C. in 5% CO2/95% air on glass coverslips coated with poly-L-lysine. For selected experiments, primary PMNs were pre-incubated with autologous plasma, cord blood plasma, nNIF (0.2-70 nM), CRISPP (0.2-70 nM), nNIF-SCR (1 nM), or CRISPP-SCR (1 nM) for one hour prior to stimulation. After pre-incubation and/or stimulation, PMNs were gently washed with PBS and incubated with a mixture of cell permeable (SYTO® Green, MOLECULAR PROBES®) and impermeable (SYTOX® Orange, MOLECULAR PROBES®) DNA fluorescent dyes. Confocal microscopy was accomplished using a FV1000 IX81 confocal microscope and FLUOVIEW™ software (OLYMPUS™). Both 20× and 60× objectives were used. Z-series images were obtained at a step size of 1 μm over a range of 20 μm for each field. FLUOVIEW™ and ADOBE™ PHOTOSHOP™ CS2 software was used for image processing.
Using BSL 2 safety protocols, primary PMNs isolated from healthy adults (2×10^6 cells/mL) were incubated with mock infection buffer or live dengue virus (M010.05) as for live cell imaging. After a 1-hour incubation, the infected PMNs were fixed with 2% p-FA for 10 minutes prior to incubation with fluorescently-labeled, cell-permeable and cell-impermeable DNA dyes, and imaged as for live cell imaging using confocal microscopy.
NET-associated histone H3 content was determined as previously described (see McInturff A M, et al., Blood. 2012; 120 (15):3118-25). After live cell imaging of control and stimulated primary PMNs (2×10^6/mL; various agonists), the cells were incubated with PBS containing DNase (40 U/mL) for 15 minutes at room temperature to break down and release NETs formed in response to stimulation. The supernatant was gently removed and centrifuged at 420×g for 5 minutes. The cell-free supernatant was then mixed 3:1 with 4× Laemmli buffer prior to western blotting. A polyclonal primary antibody against human histone H3 protein (CELL SIGNALING®) and infrared-conjugated secondary antibodies (LI-COR®) were used. Imaging and densitometry were performed on the ODYSSEY® infrared imaging system)(LI-COR®). This assay was previously validated as a surrogate for NET formation under in vitro conditions (see McInturff A M, et al., Blood. 2012; 120 (15):3118-25) as employed in the present studies.
Without being bound by any specific theory, it was hypothesized that placentally expressed HTRA1, a serine protease, regulates the formation of NET-inhibitory peptides through cleavage of AAT. To test this hypothesis, term and preterm placenta were assessed for HTRA1 expression via western blotting. HTRA1 and AAT plasma expression from term and preterm infants and adults were determined by ELISA. Bioactive (0.5 μg) or placental eluted HTRA1 was incubated with AAT (8 μM) for 18 hours at 37° C. Carboxy-terminus fragments of AAT were detected using western blotting and mass spectrometry. The reaction products were incubated for 1 hour with PMNs isolated from healthy adults prior to LPS stimulation (100 ng/mL) and assessed for NET formation using live cell imaging. Reactive oxygen species were assessed using flow cytometry, chemotaxis using a modified Boyden chamber assay, and bacterial killing using E. coli.

The test system of a further assay is previously-formed NETs. Put plainly: Post-treatment of previously formed NETs (dismantling). The settings on record: agent added after LPS stimulation; nNIF, CRISPP 1 nM; DNase 3.78 U/mL. Type of assay: cell-based, human. How it is done: FIG. 4A is a series of images depicting neutrophils isolated from venous blood of healthy adults that were incubated in medium alone (Control) or activated with LPS (100 ng/mL). CRISPP (1 nM) was added at 0, 30, or 60 minutes after LPS, and the presence of NETs was assessed by live cell imaging as in FIG. 1A after an additional 1 hour of incubation (20× magnification; scale bar=100 μm). The images are representative of three separate experiments.
For selected experiments, primary PMNs were pre-incubated with autologous plasma, cord blood plasma, nNIF (0.2-70 nM), CRISPP (0.2-70 nM), nNIF-SCR (1 nM), or CRISPP-SCR (1 nM) for one hour prior to stimulation. After pre-incubation and/or stimulation, PMNs were gently washed with PBS and incubated with a mixture of cell permeable (SYTO® Green, MOLECULAR PROBES®) and impermeable (SYTOX® Orange, MOLECULAR PROBES®) DNA fluorescent dyes. Confocal microscopy was accomplished using a FV1000 IX81 confocal microscope and FLUOVIEW™ software (OLYMPUS™). Both 20× and 60× objectives were used. Z-series images were obtained at a step size of 1 μm over a range of 20 μm for each field. FLUOVIEW™ and ADOBE™ PHOTOSHOP™ CS2 software was used for image processing.

Take “KFNKPFVFLMIEQNTKSPLFMGKVVNPTQ (listed as Homo sapiens) [nNIF]”: the “LPS-induced peritoneal NET formation” value in assay [1] was “inhibited”. Further, in assay [2], the “PMA-stimulated NET deployment” value is “blocked”, the “NET formation triggered by LPS” value is given as “potent NET-inhibitory activity; also recorded: inhibits NET formation; also recorded: inhibited LPS-stimulated NET deployment; also recorded: inhibit NET formation at nanomolar concentrations”, the “NET formation triggered by heme” value is given as “inhibit” and the “relative inhibition of NETosis (order of potency)” value is listed as “nNIF ≈CRISPP>A1ATm^358”. Further, the “degradation or dismantling of previously-formed NETs” value with previously-formed NETs is “do not degrade or dismantle”.
Take “M_IPPEVKFNKPFVFLMIDQNTKVPLFMGK [CRISPP, consensus peptide based on factors present in the blood of patients with cancer]”: the “LPS-induced peritoneal NET formation” value in assay [1] is on record as “inhibited”. For the same substance, in assay [2], the “PMA-stimulated NET deployment” value is recorded as “blocked”, the “NET formation triggered by LPS” value is on record as “inhibits NET formation; also recorded: inhibited LPS-stimulated NET deployment; also recorded: inhibit NET formation at nanomolar concentrations”, the “NET formation triggered by heme” value is given as “inhibit” and the “relative inhibition of NETosis (order of potency)” value is listed as “nNIF ≈CRISPP>A1ATm^358”. Further, the “NET formation induced by live Staphylococcus aureus” value in assay [2] (S. aureus MOI 100:1, peptide 1 nM) is recorded as “inhibited”. In assay [2] (dengue virus MOI 0.05:1, peptide 1 nM), the “NET generation stimulated by dengue virus” value was “inhibited”. Besides, the “degradation or dismantling of previously-formed NETs” value in the assay on previously-formed NETs is “do not degrade or dismantle”.

The record behind these values is patent publication US10857201B2, “NNIF and nNIF-related peptides and related methods” (UNIVERSITY OF UTAH RESEARCH FOUNDATION, priority 2016, dated 2020).
